ChEMBL document CHEMBL2150993, “Substituted thiazoles VII. Synthesis and antitumor activity of certain 2-(substituted amino)-4-phenyl-1,3-thiazole analogs” (2012)

Assays:
Format in all cases: functional
Settings in all cases: at 10 µM
IGROV-1 = assay: Growth inhibition of human IGROV1 cells after 48 hrs by cell counting analysis
RXF 393 = assay: Growth inhibition of human RXF393 cells after 48 hrs by cell counting analysis
SF-295 = assay: Growth inhibition of human SF295 cells after 48 hrs by cell counting analysis
SK-OV-3 = assay: Growth inhibition of human SKOV3 cells after 48 hrs by cell counting analysis
MDA-MB-231 = assay: Growth inhibition of human MDA-MB-231 cells after 48 hrs by cell counting analysis
SK-MEL-28 = assay: Growth inhibition of human SK-MEL-28 cells after 48 hrs by cell counting analysis
NCI-H226 = assay: Growth inhibition of human NCI-H226 cells after 48 hrs by cell counting analysis
SK-MEL-5 = assay: Growth inhibition of human SK-MEL-5 cells after 48 hrs by cell counting analysis
SF-539 = assay: Growth inhibition of human SF539 cells after 48 hrs by cell counting analysis
TK-10 = assay: Growth inhibition of human TK10 cells after 48 hrs by cell counting analysis
[1] = Growth inhibition of human NCI-ADR-RES cells after 48 hrs by cell counting analysis
LOX IMVI = assay: Growth inhibition of human LOXIMVI cells after 48 hrs by cell counting analysis
SR = assay: Growth inhibition of human SR cells after 48 hrs by cell counting analysis
A549 = assay: Growth inhibition of human A549 cells after 48 hrs by cell counting analysis
K562 = assay: Growth inhibition of human K562 cells after 48 hrs by cell counting analysis
SW-620 = assay: Growth inhibition of human SW620 cells after 48 hrs by cell counting analysis
PC-3 = assay: Growth inhibition of human PC3 cells after 48 hrs by cell counting analysis
CAKI-1 = assay: Growth inhibition of human Caki1 cells after 48 hrs by cell counting analysis
EKVX = assay: Growth inhibition of human EKVX cells after 48 hrs by cell counting analysis
NCI-H522 = assay: Growth inhibition of human NCI-H522 cells after 48 hrs by cell counting analysis
MDA-MB-468 = assay: Growth inhibition of human MDA-MB-468 cells after 48 hrs by cell counting analysis
CCRF-CEM = assay: Growth inhibition of human CCRF-CEM cells after 48 hrs by cell counting analysis
HCT-116 = assay: Growth inhibition of human HCT116 cells after 48 hrs by cell counting analysis
RPMI-8226 = assay: Growth inhibition of human RPMI8226 cells after 48 hrs by cell counting analysis
ACHN = assay: Growth inhibition of human ACHN cells after 48 hrs by cell counting analysis
OVCAR-8 = assay: Growth inhibition of human OVCAR8 cells after 48 hrs by cell counting analysis
HCT-15 = assay: Growth inhibition of human HCT15 cells after 48 hrs by cell counting analysis
SN12C = assay: Growth inhibition of human SN12C cells after 48 hrs by cell counting analysis
T47D = assay: Growth inhibition of human T47D cells after 48 hrs by cell counting analysis
NCI-H23 = assay: Growth inhibition of human NCI-H23 cells after 48 hrs by cell counting analysis
HOP-62 = assay: Growth inhibition of human HOP62 cells after 48 hrs by cell counting analysis
U-251 = assay: Growth inhibition of human U251 cells after 48 hrs by cell counting analysis
HCC 2998 = assay: Growth inhibition of human HCC2998 cells after 48 hrs by cell counting analysis
[2] = Growth inhibition of human NCI-322M cells after 48 hrs by cell counting analysis
M14 = assay: Growth inhibition of human M14 cells after 48 hrs by cell counting analysis
KM12 = assay: Growth inhibition of human KM12 cells after 48 hrs by cell counting analysis
MDA-MB-435 = assay: Growth inhibition of human MDA-MB-435 cells after 48 hrs by cell counting analysis
SF-268 = assay: Growth inhibition of human SF268 cells after 48 hrs by cell counting analysis
SNB-19 = assay: Growth inhibition of human SNB19 cells after 48 hrs by cell counting analysis
MCF7 = assay: Growth inhibition of human MCF7 cells after 48 hrs by cell counting analysis
UACC-257 = assay: Growth inhibition of human UACC257 cells after 48 hrs by cell counting analysis
MOLT-4 = assay: Growth inhibition of human MOLT4 cells after 48 hrs by cell counting analysis
HL-60 = assay: Growth inhibition of human HL60 cells after 48 hrs by cell counting analysis
UO-31 = assay: Growth inhibition of human UO31 cells after 48 hrs by cell counting analysis
SNB-75 = assay: Growth inhibition of human SNB75 cells after 48 hrs by cell counting analysis
OVCAR-3 = assay: Growth inhibition of human OVCAR3 cells after 48 hrs by cell counting analysis
HT-29 = assay: Growth inhibition of human HT-29 cells after 48 hrs by cell counting analysis
HOP-92 = assay: Growth inhibition of human HOP92 cells after 48 hrs by cell counting analysis
UACC-62 = assay: Growth inhibition of human UACC62 cells after 48 hrs by cell counting analysis
OVCAR-5 = assay: Growth inhibition of human OVCAR5 cells after 48 hrs by cell counting analysis
BT-549 = assay: Growth inhibition of human BT549 cells after 48 hrs by cell counting analysis
OVCAR-4 = assay: Growth inhibition of human OVCAR4 cells after 48 hrs by cell counting analysis
SK-MEL-2 = assay: Growth inhibition of human SK-MEL-2 cells after 48 hrs by cell counting analysis
Malme-3M = assay: Growth inhibition of human MALME-3M cells after 48 hrs by cell counting analysis

CN1CCN(CCC(=O)Nc2nc(-c3ccc(Cl)cc3)cs2)CC1
growth inhibition (GI) (IGROV-1): 18.4%
growth inhibition (GI) (RXF 393): 47.4%
growth inhibition (GI) (SF-295): <10%
growth inhibition (GI) (SK-OV-3): <10%
growth inhibition (GI) (MDA-MB-231): 25.6%
growth inhibition (GI) (SK-MEL-28): <10%
growth inhibition (GI) (NCI-H226): 28%
growth inhibition (GI) (SK-MEL-5): 46.1%
growth inhibition (GI) (SF-539): 14.8%
growth inhibition (GI) (TK-10): 20.2%
growth inhibition (GI) [1]: 21.9%
growth inhibition (GI) (LOX IMVI): 12.8%
growth inhibition (GI) (SR): <10%
growth inhibition (GI) (A549): <10%
growth inhibition (GI) (K562): 22.4%
growth inhibition (GI) (SW-620): <10%
growth inhibition (GI) (PC-3): 15.3%
growth inhibition (GI) (CAKI-1): 24.2%
growth inhibition (GI) (EKVX): 11.9%
growth inhibition (GI) (NCI-H522): 31.1%
growth inhibition (GI) (MDA-MB-468): 62.8%
growth inhibition (GI) (CCRF-CEM): 18.3%
growth inhibition (GI) (HCT-116): 13.3%
growth inhibition (GI) (RPMI-8226): 17.6%
growth inhibition (GI) (ACHN): <10%
growth inhibition (GI) (OVCAR-8): 15.6%
growth inhibition (GI) (HCT-15): 18.1%
growth inhibition (GI) (SN12C): 32.9%
growth inhibition (GI) (T47D): 28.8%
growth inhibition (GI) (NCI-H23): 11.2%
growth inhibition (GI) (HOP-62): 19.7%
growth inhibition (GI) (U-251): 16.5%
growth inhibition (GI) (HCC 2998): 13.3%
growth inhibition (GI) [2]: <10%
growth inhibition (GI) (M14): 15.2%
growth inhibition (GI) (KM12): <10%
growth inhibition (GI) (MDA-MB-435): 15.4%
growth inhibition (GI) (SF-268): 14.2%
growth inhibition (GI) (SNB-19): 19.7%
growth inhibition (GI) (MCF7): 28%
growth inhibition (GI) (UACC-257): <10%
growth inhibition (GI) (MOLT-4): 51.8%
growth inhibition (GI) (HL-60): 20.6%
growth inhibition (GI) (UO-31): 48.6%
growth inhibition (GI) (SNB-75): 26.8%
growth inhibition (GI) (OVCAR-3): <10%
growth inhibition (GI) (HT-29): 23.8%
growth inhibition (GI) (HOP-92): 42.2%
growth inhibition (GI) (UACC-62): 15%
growth inhibition (GI) (OVCAR-5): <10%
growth inhibition (GI) (BT-549): 29.1%
growth inhibition (GI) (OVCAR-4): <10%
growth inhibition (GI) (SK-MEL-2): <10%
growth inhibition (GI) (Malme-3M): 15.4%

Cn1cc(NC(=O)c2cc(NC(=O)CNC(=N)N)cn2C)cc1C(=O)NCCC(=N)N [NETROPSIN]
growth inhibition (GI) (IGROV-1): 17.4%
growth inhibition (GI) (RXF 393): <10%
growth inhibition (GI) (SF-295): 14.4%
growth inhibition (GI) (SK-OV-3): <10%
growth inhibition (GI) (MDA-MB-231): 23.4%
growth inhibition (GI) (SK-MEL-28): <10%
growth inhibition (GI) (NCI-H226): 14.5%
growth inhibition (GI) (SK-MEL-5): 23.7%
growth inhibition (GI) (SF-539): <10%
growth inhibition (GI) (TK-10): <10%
growth inhibition (GI) [1]: 17%
growth inhibition (GI) (LOX IMVI): <10%
growth inhibition (GI) (SR): <10%
growth inhibition (GI) (A549): 10.3%
growth inhibition (GI) (K562): 25.1%
growth inhibition (GI) (SW-620): <10%
growth inhibition (GI) (PC-3): 17.8%
growth inhibition (GI) (CAKI-1): 28.9%
growth inhibition (GI) (EKVX): 19.5%
growth inhibition (GI) (NCI-H522): 28.2%
growth inhibition (GI) (MDA-MB-468): 25.7%
growth inhibition (GI) (CCRF-CEM): 15.3%
growth inhibition (GI) (HCT-116): 10.7%
growth inhibition (GI) (RPMI-8226): 28.9%
growth inhibition (GI) (ACHN): <10%
growth inhibition (GI) (OVCAR-8): <10%
growth inhibition (GI) (HCT-15): <10%
growth inhibition (GI) (SN12C): <10%
growth inhibition (GI) (T47D): 25.2%
growth inhibition (GI) (NCI-H23): 13.9%
growth inhibition (GI) (HOP-62): 10.9%
growth inhibition (GI) (U-251): <10%
growth inhibition (GI) (HCC 2998): <10%
growth inhibition (GI) [2]: 11.1%
growth inhibition (GI) (M14): <10%
growth inhibition (GI) (KM12): <10%
growth inhibition (GI) (MDA-MB-435): <10%
growth inhibition (GI) (SF-268): <10%
growth inhibition (GI) (SNB-19): 10.5%
growth inhibition (GI) (MCF7): 13.7%
growth inhibition (GI) (UACC-257): <10%
growth inhibition (GI) (MOLT-4): 33.2%
growth inhibition (GI) (HL-60): 12.6%
growth inhibition (GI) (UO-31): 30.6%
growth inhibition (GI) (SNB-75): 29.8%
growth inhibition (GI) (OVCAR-3): <10%
growth inhibition (GI) (HT-29): 10.8%
growth inhibition (GI) (HOP-92): <10%
growth inhibition (GI) (UACC-62): 29%
growth inhibition (GI) (OVCAR-5): <10%
growth inhibition (GI) (BT-549): 12.9%
growth inhibition (GI) (OVCAR-4): <10%
growth inhibition (GI) (SK-MEL-2): <10%
growth inhibition (GI) (Malme-3M): 12.4%
